Data published in BindingDB's records for doi:10.1021/jm00075a026 (Solvay Duphar, 1994).

Target: T1, Glycine receptor subunit alpha-4 (Mus musculus, UniProt Q61603)
T1 sequence (Q61603 whole entry): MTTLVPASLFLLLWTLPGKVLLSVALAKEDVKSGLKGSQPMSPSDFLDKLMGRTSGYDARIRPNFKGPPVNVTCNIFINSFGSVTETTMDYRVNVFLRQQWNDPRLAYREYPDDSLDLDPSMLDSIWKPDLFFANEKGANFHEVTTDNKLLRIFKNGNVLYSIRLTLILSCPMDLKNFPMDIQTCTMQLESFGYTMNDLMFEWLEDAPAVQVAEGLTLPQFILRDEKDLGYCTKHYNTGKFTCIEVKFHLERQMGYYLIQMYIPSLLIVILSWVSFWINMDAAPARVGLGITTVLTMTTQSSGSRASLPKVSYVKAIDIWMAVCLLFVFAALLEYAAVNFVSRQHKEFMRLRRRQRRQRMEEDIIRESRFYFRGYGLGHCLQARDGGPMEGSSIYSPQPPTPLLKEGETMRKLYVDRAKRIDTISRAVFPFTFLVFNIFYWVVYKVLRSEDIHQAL
Test: ChEBML_219281
Description: The binding affinity was measured on glycine receptor using [3H]- strychnine as radioligand.

Ki: > 10 µM
SMILES: Cc1nccn1CC1CCc2c(c3ccccc3n2C)C1=O (stereo unspecified) [NSC_68647]
